Assays:
[1] = test system: H. cordata cell suspension; experiment: Elicitor effect on amount of small RNA from cell suspension EVs; type: cell-based, Houttuynia cordata; settings: for amount of RNA obtained from nutrient medium EVs compared to the control group: elicitor added on the 14th day, 0.2-0.8 mM, 1-3 days
[2] = test system: H. cordata cell suspension; experiment: Elicitor effect on cell suspension biomass (lyophilized cell weight); type: cell-based, Houttuynia cordata; settings: elicitor treatment
Method: On the 14th day of the culture, the cell suspension medium was supplemented with 0.2-0.4 and 0.8 mM MeJA or SA, and the suspensions were subjected to additional incubation for 1, 2, and 3 days. After the incubation periods of H. cordata cell suspension cultures were completed, the cells were passed through a filter, and the cultures were terminated. Subsequently, cells from all groups were lyophilized. The weights of the lyophilized cells were measured and recorded.

SMILES	amount of small RNA obtained ([1]; 0.2 mM MeJA for 72 hours) [ng/µL]	amount of small RNA relative to the control group ([1]; 0.2 mM MeJA for 72 hours) [times]	amount of RNA obtained from nutrient medium EVs compared to the control group [1]	quantity of H. cordata cell suspensions (lyophilized cell weight) compared to the control group [2]
CC/C=C\CC1C(=O)CCC1CC(=O)OC (stereo not drawn) [MeJA, Methyl jasmonate]	3000	1.9	led to an increase	No statistically significant difference
O=C(O)c1ccccc1O [SA, Salicylic acid]			did not result in a significant increase	No statistically significant difference

— patent US20260240755A1, “Use Of Plant Cell Suspension Extracellular Vesicle-Derived Small Rnas As Cosmetic Active Ingredient” (ACTV BiYOTEKNOLOJi LABORATUVAR SANAYi VE TiCARET ANONiM …, priority 2023, published 2026)
